The values that follow come from US6146628A, “Biotherapeutic agents comprising recombinant PAP and PAP mutants” (priority 1995, dated 2000).

pIC50: −log10 of the molar value. Read-outs that look alike come from different tables or passages of the source.

The test system of data set [1] is clinical HIV-1 strains (AT-101, AT-328, AT-332). In kind it is in vivo, Hu-PBL-SCID mice.
From the text: Hu-PBL-SCID mice were generated by reconstituting SCID mice by intraperitoneal injection of 10×10^6 peripheral blood mononuclear cells from a single EBV-seronegative volunteer donor. Two weeks after inoculation of cells, mice were challenged by intraperitoneal injection of 1.47.-7×10^4 median tissue culture infectious doses (TCID50) of cell free virus. Three different clinical HIV-1 strains (AT-101, AT-328, AT-332) were used. […] SCID mice were infected with HIV-1 isolates in a Biosafety Level 3 containment facility and all manipulations were performed in a biosafety cabinet. Non-toxic doses of anti-CD4-PAP (20% -50% of LD10) were administered intraperitoneally by injecting half of the total dose as a bolus and delivering the remainder i.p. over 2 weeks using Alzet micro-osmotic pumps. […] Two weeks after infection with HIV-1, mice were electively killed and fresh peritoneal lavage cells as well as spleen cells were isolated, cocultured with phytohemagglutinin(PHA)-stimulated human peripheral blood mononuclear cells from an HIV-1 antibody negative donor, and culture supernatants were tested every 3-4 days for a maximum of 28 days for the presence of HIV-1 antigen with a commercially available enzyme immunoassay (Abbott Laboratories, North Chicago, Ill.) that detects primarily the core p24 antigen of HIV-1, as previously described by Goudsmit et al. in J. Infectious Diseases, 155, 558 (1987). In addition to this culture method, we also isolated the DNA from the peritoneal lavage cells as well as splenocytes for detection of HIV-1 DNA by PCR amplification of a 115 b.p. sequence in the gag region of the HIV-1 genome using two 29-base oligonucleotide primers, SK38 and SK39, that flank the region to be amplified. […] DNA samples were also examined for the presence of human DNA by PCR amplification of a 110-bp fragment from the first exon of the human β-globin gene using two 20-base oligonucleotide primers, PCO3 and PCO4, that flank the region to be amplified, as previously described in detail by Chelstrom et al. Blood, 84, 20 (1994). […]
For the next data set, the system named is clinical HIV-1 isolates. The data set is described as follows: In vitro susceptibility of clinical HIV-1 isolates to zidovudine (IC50). Type of data set: cell-based. From the text:
(§1) A total of 22 clinical HIV-1 isolates were studied, including 8 isolates from four seropositive asymptomatic individuals, 6 isolates from three patients with the AIDS-related complex, and 8 isolates from four patients with AIDS (two pairs of zidovudine-resistant and zidovudine-susceptible reference isolates were also included in this group). Erice et al., Antimicrob. Ag. Chemother., 37, 835 (1993). Fifteen isolates were from untreated individuals, and seven isolates were obtained after 24 to 104 weeks of treatment with zidovudine, alone or alternating with zalcitabine. […] The mean αCD4-PAP IC50 s in this group were 11×10^-3 nM (range, 2.5×10^-3 to 25×10^-3 nM) for isolates from zidovudine-untreated individuals and 9×10^-3 nM for the isolate obtained after 48 weeks of zidovudine therapy. […] The mean αCD4-PAP values in this group were 137×10^-3 nM (range, 39×10^-3 to 212×10^-3 nM) for isolates from untreated individuals and 19×10^-3 nM (range, 2×10^-3 to 42×10^-3 nM) for isolates from treated patients. […] The mean αCD4-PAP values were 43×10^-3 nM for the 17 isolates susceptible to zidovudine and 19×10^-3 nM for the 5 isolates that were resistant to zidovudine. All of the HIV-1 isolates studied had IC50 s greater than 0.5 nM for unconjugated PAP, the αCD19-PAP immunoconjugate, and monoclonal antibody αCD4. In 18 αCD4-PAP experiments, cell viability ranged from 97.5% (for cells not exposed to the immunoconjugate)to 87.2% (for cells exposed to 5 nM αCD4-PAP). Cell viabilities in 22 zidovudine susceptible assays ranged from 90.9% (cells not exposed to zidovudine) to 90.75% (cells exposed to 10,000 mM zidovudine). […]
The in vitro susceptibility of clinical HIV-1 isolates to the PAP, PAP mutants, and anti-CD4 PAP immunoconjugates will be measured and compared using an RT inhibition assay, as described by Schwartz et al., cited supra. In brief, 5×10^6 PHA-stimulated seronegative donor peripheral blood mononuclear cells will be infected with HIV-1 by incubation in 1 mL of a stock virus preparation for 3 h at 37° C./5% CO2. After infection, cells will be transferred to 96-well tissue culture plates (40 μL/well in triplicate wells) containing different concentrations of PAP or αCD4 PAP diluted in RPMI 1640 supplemented with 20% fetal calf serum, 5% interleukin 2 (Cellular Products), 160 U/mL penicillin, and 160 μg/mL streptomycin. αCD4 PAP treatment will continue for 5 days to mimic the FDA-approved clinical protocol of the ongoing phase II PAP immunoconjugate trials for treatment of B-lineage lymphoid malignancies (BB-IND #3864). At the end of the incubation period, culture supernatants will be removed and assayed for RT activity using the method of Schwartz and colleagues. Schwartz et al., cited supra. IC50 values (concentration of drug needed to reduce RT activity by 50%) will be calculated from the RT activities of untreated versus treated samples using the SAS Regression Analysis Program (SAS Institute, Cary, N.C.). ZDV resistance will be defined as an ZDV-IC50value of greater than 1 μM. Standard statistical methods will be used including Student's t-tests to compare the αCD4 PAP sensitivity of ZDV-resistant and ZDV-sensitive HIV-1 isolates. All computations will be performed using an updated statistics program for the Macintosh (Statworks Statistics Program, Cricket Software, Philadelphia, Pa.).

Another data set in a line: in vitro. In kind it is cell-based. The following applies: cells exposed to zidovudine; 22 assays; 90.9% for cells not exposed; read-out: cell viability.
From the text: as §1, with “αCD4.” for “αCD4. In 18 αCD4-PAP experiments, cell viability ranged from 97.5% (for cells not exposed to the immunoconjugate)to 87.2% (for cells exposed to 5 nM αCD4-PAP). Cell viabilities in 22 zidovudine susceptible assays ranged from 90.9% (cells not exposed to zidovudine) to 90.75% (cells exposed to 10,000 mM zidovudine).”

Where [2] appears, read: ZDV in the water at 1 mg/mL, of the remaining 7 of 10 mice.

For the compound `Cc1cn([C@H]2C[C@H](N=[N+]=[N-])[C@@H](CO)O2)c(=O)[nH]c1=O` [zidovudine, 3'-azido-3'-deoxythymidine], the HIV-1 negative mice in data set [1] (ZDV in the water at 1 mg/mL (average 200 mg/kg/day), two weeks after infection, culture and PCR) is reported as 3 of 10. For the same compound, in data set [1] (setting [2]), the “mice culture-negative but PCR-positive” value was found to be 3. Further, the “mice culture-positive and PCR positive” value in data set [1] (setting [2]) was determined as 4. Besides, the pIC50 in the data set on clinical HIV-1 isolates (Human immunodeficiency virus 1, one resistant isolate, IC50 could not be calculated) was less than 5.40; in the data set with clinical HIV-1 isolates (Human immunodeficiency virus 1, read-out: mean IC50, overall, 5 isolates resistant to zidovudine), 5.43; in the data set with clinical HIV-1 isolates (Human immunodeficiency virus 1, read-out: mean IC50, overall, 17 isolates susceptible to zidovudine) it was 6.93; with clinical HIV-1 isolates (Human immunodeficiency virus 1, read-out: mean zidovudine IC50, AIDS-related complex, four zidovudine susceptible isolates), 6.97; in the data set with clinical HIV-1 isolates (Human immunodeficiency virus 1, read-out: mean zidovudine IC50, isolates from seropositive asymptomatic, zidovudine-untreated patients) it was 6.82; with clinical HIV-1 isolates (Human immunodeficiency virus 1, read-out: mean zidovudine IC50, patients with AIDS, five zidovudine susceptible strains) it was 6.98. For the same compound, the pIC50 was 5.60 in the data set on clinical HIV-1 isolates (Human immunodeficiency virus 1, read-out: mean zidovudine IC50, strains from zidovudine-treated patients (7 isolates, 24 to 104 weeks of treatment)); 6.90 in the data set with clinical HIV-1 isolates (Human immunodeficiency virus 1, read-out: mean zidovudine IC50, strains from zidovudine-untreated individuals (15 isolates)); 7.85 in the data set on clinical HIV-1 isolates (Human immunodeficiency virus 1, read-out: zidovudine IC50, one isolate from a seropositive asymptomatic individual after 48 weeks of zidovudine therapy); 6.82 to 7.62 with clinical HIV-1 isolates (Human immunodeficiency virus 1, read-out: zidovudine IC50 range, AIDS-related complex, four zidovudine susceptible isolates); 6.22 to 9.00 in the data set on clinical HIV-1 isolates (Human immunodeficiency virus 1, read-out: zidovudine IC50 range, isolates from seropositive asymptomatic, zidovudine-untreated patients); 6.78 to 7.36 in the data set on clinical HIV-1 isolates (Human immunodeficiency virus 1, read-out: zidovudine IC50 range, patients with AIDS, five zidovudine susceptible strains). The pIC50 with clinical HIV-1 isolates (Human immunodeficiency virus 1, read-out: zidovudine IC50 range, strains from zidovudine-treated patients (7 isolates)) is 5.19 to 7.85; in the data set on clinical HIV-1 isolates (Human immunodeficiency virus 1, read-out: zidovudine IC50 range, strains from zidovudine-untreated individuals (15 isolates)) it was 6.22 to 9.00; with clinical HIV-1 isolates (Human immunodeficiency virus 1, read-out: zidovudine IC50s, AIDS-related complex, two resistant isolates obtained after 52 weeks of therapy), 5.67 to 5.77. Moreover, the susceptibility to zidovudine entry in the data set with clinical HIV-1 isolates (patients with AIDS, three isolates after 24 to 104 weeks of zidovudine, alone or alternating with zalcitabine) is “highly resistant to zidovudine”. For the same compound, the viability in the data set “in vitro” was determined as 90.8%.

Usually viability stands for a read-out of living cells in per cent, often relative to untreated cells.
